Assay results as given in the OligoGym collection.
“And” between values parts separate entries of the source, which are not always exact repeats. Equal values may be shown once. After the bases stand the sugars from the 5' end (letter, count) and the backbone: PS all phosphorothioate, else s phosphorothioate and o phosphodiester by linkage. Methylation of C is not given here. e = 2'-O-(2-methoxyethyl) (MOE); l = locked nucleic acid (LNA); k = constrained ethyl (cEt); d = 2'-deoxy (DNA)

Tests used:
ANGPTL2 = conditions: ASO
KRAS = conditions: ASO

Sequence	target mRNA inhibition (ANGPTL2; 5 µM) [%]	target mRNA inhibition (ANGPTL2; 25 µM) [%]	other results
AACCATTTTGAGATTCCCC (sugars l1 d16 l2, PS)	28.5	17.6	–
AACCCCAGAGGATATGT (sugars l1 d13 l3, PS)	49.3	58.9	–
AAGTTGATAGTTTATCTCC (sugars l3 d14 l2, PS)	76.3	83.8	–
AAGTTGATAGTTTATCTCCT (sugars l2 d16 l2, PS)	60.9	72	–
AATTACTCCACACTTTCA (sugars l3 d12 l3, PS)	55.7	61.6	–
ACAACTCACATTCATAG (sugars l4 d9 l4, PS)	49	54.7	–
ACAGAGACTAGGCATTT (sugars l3 d10 l4, PS)	74.1	83.9	–
ACATAATGTTTCATGCT (sugars l4 d11 l2, PS)	46	45.8	–
ACTGGTGAGGAGTTGTT (sugars l2 d13 l2, PS)	26	25.8	–
AGATGAATATAGTTCTC (sugars l4 d10 l3, PS)	55.3	65.9	–
AGCTCAGTGGTGAGATGG (sugars l1 d15 l2, PS)	54.1	54.8	–
AGTGAGAGGAAGTCAGGG (sugars l1 d15 l2, PS)	39.6	46.3	–
AGTGTTTAAGAAGAAATG (sugars l4 d10 l4, PS)	41.7	54.8	–
AGTTACTCTTAGCCAAA (sugars l3 d10 l4, PS)	82.6	84.8	–
ATAACGCCCACTGAGA (sugars l1 d11 l4, PS)	24.4	39.7	–
ATAGCAGGGAGTGACC (sugars l2 d12 l2, PS)	8.4	26.5	–
ATCTGGTTGATGATGCGG (sugars l2 d14 l2, PS)	75.2	82.3	–
ATCTTATTTTGTTTAACA (sugars l4 d10 l4, PS)	60.2	51.7	–
ATGAAGTCAGTCAGAGCCT (sugars l1 d16 l2, PS)	27.6	22.6	–
ATGATGCGGTTGTAGGT (sugars l2 d13 l2, PS)	57.5	–	–

Sequence	target mRNA inhibition (ANGPTL2; 5 µM) [%]	target mRNA inhibition (ANGPTL2; 25 µM) [%]	other results
ATTTACTGTCTGCCCAG (sugars l2 d12 l3, PS)	54.6	59.5	–
ATTTTGAGATTCCCCCAA (sugars l1 d14 l3, PS)	3.44	20.9	–
CAGAACAATGGGGAGGA (sugars l3 d12 l2, PS)	58.5	51.1	–
CAGCTCATTGTTGAGCAG (sugars l2 d14 l2, PS)	-19	7.91	–
CAGGCACACTAATGAGA (sugars l2 d12 l3, PS)	9.64	9.52	–
CAGGCCAACACTAACTCG (sugars l1 d14 l3, PS)	73.4	84.2	–
CAGGCGTCTCTGGATGA (sugars l1 d14 l2, PS)	17.4	10.6	–
CATTTTGAGATTCCCCC (sugars l1 d14 l2, PS)	27.1	14	–
CCAAGGGCACGTTTTA (sugars l2 d12 l2, PS)	-4	13.2	–
CCAGTTCCTGAAGAAGTT (sugars l2 d14 l2, PS)	16.3	16.7	–
CCTTGCAAAATGGTGGTT (sugars l2 d14 l2, PS)	49.6	57.4	–
CTCCGGTAATGGCCCC (sugars l1 d12 l3, PS)	28.6	25.4	–
CTTAATGGGCAGTAATA (sugars l4 d9 l4, PS)	32.6	42.3	–
GAACCTCAATATCCTGC (sugars l1 d13 l3, PS)	62.6	72.6	–
GAACTCAGCCCAGTAGA (sugars l1 d14 l2, PS)	1.82	15.7	–
GACTAACTGTTGAAATTG (sugars l3 d11 l4, PS)	26.9	30.8	–
GAGTTCATGTTGCGGC (sugars l1 d13 l2, PS)	21.4	24.9	–
GATGATGCGGTTGTAG (sugars l4 d10 l2, PS)	70	75.2	–
GCAGCTCATTGTTGAGC (sugars l1 d14 l2, PS)	8.7	–	–
GCAGTTATCACACCACA (sugars l1 d13 l3, PS)	38.9	44	–

Sequence	target mRNA inhibition (ANGPTL2; 5 µM) [%]	target mRNA inhibition (ANGPTL2; 25 µM) [%]	other results
GCTCATTGTTGAGCAGC (sugars l1 d14 l2, PS)	-2.2	3.15	–
GTATTGTGAGGAGTTTC (sugars l4 d11 l2, PS)	80	84.3	–
GTGGGCAGGAGAAGGGAC (sugars l1 d15 l2, PS)	17.8	-18.2	–
GTTGATGATGCGGTTGTA (sugars l1 d15 l2, PS)	44.2	53.9	–
TATTAGCATCACTACTTT (sugars l4 d11 l3, PS)	48	52.1	–
TCCAAGGCACTCTATGAT (sugars l2 d14 l2, PS)	13.8	27.7	–
TGACCCCTGATTATTCA (sugars l1 d13 l3, PS)	7.55	4.06	–
TGATGATGCGGTTGTAG (sugars l3 d12 l2, PS)	64.2	70.3	–
TGGTTGATGATGCGGTTGTA (sugars l1 d17 l2, PS)	48	53	–
TTATAAACTCCTTGCTCTA (sugars l1 d14 l4, PS)	33.2	42.4	–
TTGACAGGGATTAGGCA (sugars l1 d13 l3, PS)	11.6	23.9	–
TTGATTTGTCAGCAGG (sugars k3 d10 k3, PS)	–	–	target mRNA inhibition (KRAS; A431, 0.185 µM): 41%; target mRNA inhibition (KRAS; A431, 0.556 µM): 60%; target mRNA inhibition (KRAS; A431, 1.667 µM): 77%; target mRNA inhibition (KRAS; A431, 2 µM): 65% and 66% and 74%; target mRNA inhibition (KRAS; A431, 5 µM): 87%
TTGATTTGTCAGCAGG (sugars kdddddddddkekeke, PS)	–	–	target mRNA inhibition (KRAS; A431, 2 µM): 22%
TTGATTTGTCAGCAGG (sugars kkkdddddddddkeke, PS)	–	–	target mRNA inhibition (KRAS; A431, 2 µM): 40%
TTGATTTGTCAGCAGG (sugars kkkddddddddkdkdk, PS)	–	–	target mRNA inhibition (KRAS; A431, 2 µM): 19%
TTGATTTGTCAGCAGG (sugars kkkddddddddkekek, PS)	–	–	target mRNA inhibition (KRAS; A431, 2 µM): 37% and 12%
TTGCTATAATAATCCC (sugars k3 d10 k3, PS)	–	–	target mRNA inhibition (KRAS; A431, 2 µM): 39%
TTGTTTAAAAAAAAAA (sugars k3 d10 k3, PS)	–	–	target mRNA inhibition (KRAS; A431, 2 µM): 0%
TTTCTGATGTGACTCA (sugars k3 d10 k3, PS)	–	–	target mRNA inhibition (KRAS; A431, 0.185 µM): 0%; target mRNA inhibition (KRAS; A431, 0.556 µM): 23%; target mRNA inhibition (KRAS; A431, 1.667 µM): 43%; target mRNA inhibition (KRAS; A431, 2 µM): 57%; target mRNA inhibition (KRAS; A431, 5 µM): 60%
